Measurements published in patent publication US7041869B2, “Transgenic luciferase mouse” (Sloan-Kettering Institute for Cancer Research, priority 2002, dated 2006).
Entries after “also recorded” stand apart in the source; their conditions may differ.

Tests used:
[1] = test system: PDGF signaling in glial cell culture; conditions: previously demonstrated; cited from earlier work
PDGF-driven gliomas = assay: Elux bioluminescence imaging of PDGF-induced gliomas during treatment; type: in vivo, mice
Method: As an illustration of the use of Elux in somatic cell gene transfer models, the inventors have generated gliomas in mice harboring the Elux transgene. The Elux transgenic line was crossed with the Ntv-a transgenic mouse line. These doubly transgenic mice were then infected at birth with RCAS-PDGF. The mice were injected intracranially with one microliter containing 10^4 DF-1 cells, a chicken fibroblast cell line that are infected with and producing the RCAS-PDGF virus. This vector encodes the PDGF B coding region downstream of the env gene and expressed from the LTR on a message that splices out the viral genes. The injection passed through the striatum, just anterior to the ventricle, until the tip of the needle just touches the skull base. The producer cells survived for only a few days within the parenchyma of the mouse brain and during this time they produced virus and infected adjacent cells expressing the receptor for RCAS, tv-a. The mice were then observed for the development of signs of intracranial pathology including weight loss, lethargy, and macrocephaly. These mice were analyzed for expression of luciferase by i.v. injection with luciferin and imaging for bioluminescence with a CCD camera as discussed in detail below.
Animals were weighed prior to the acquisition session for proper dosage calculations. […] The solution was sterilized by filtration through 0.22 μm syringe filter. Individual dosages were drawn into sterile insulin syringes for each animal based on the body weight. Prior to the injection, individual syringes were kept in dark.
Oxygen flow was turned on and set for 1 l/min flow. […] For the induction of anesthesia, the animal was placed into the induction chamber and general activity and respiration rate were monitored. […]
Bioluminescent acquisition was performed according to the IVIS™ Imaging System (Xenogen). […] It was selected empirically, based on prior in vitro characterization of luminescence of transfected cells and the intensity of luminescence signal obtained from the current study. […]

Clc1ccc(Nc2nnc(Cc3ccncc3)c3ccccc23)cc1 [PTK787]
effect on PDGF signaling in glial cell culture [1]: capable of reversing the effects of PDGF signaling
loss in light emission (bioluminescence) (PDGF-driven gliomas; Ntv-a/Elux bitransgenic mice with RCAS-PDGF gliomas, 25 mg/kg i.p. daily, in 24–36 hours): 50%
relative falloff of light production across tumors of various light outputs (PDGF-driven gliomas; four consecutive mice with PDGF-induced gliomas, bioluminescence quantified daily during treatment): essentially parallel responses of decreases in light emission over time; also recorded: proportionally similar
